# Assay results reported in patent US20230391727A1, “ANALOGUES OF PENTAMIDINE AND METHODS FOR TREATING INFECTIONS” (Auransa Inc., priority 2020, published 2023).
# Experiments:
# A. baumannii ATCC 17978 = test: Checkerboard assay with novobiocin (FIGS. 2, 3, 5, 6); assay type: cell-based, Acinetobacter baumannii; settings: for MIC: Acinetobacter baumannii, ATCC17978, substance alone
# From the text: Novobiocin is an anti-staphylococcal drug, but with limited use. The oral form of novobiocin drug has since been withdrawn from the market due to lack of efficacy. This antibiotic is often used to treat Staphylococcus aureus infection, particularly methicillin resistant S. aureus “MRSA”.
# NCI H69 cells = test: CellTiter-Glo cell viability assay (cytotoxicity), 8 days; assay type: cell-based; settings: Homo sapiens, 192 h, full growth media
# Protocol: The experiment tested pentamidine, Compounds 1-6 in full growth media for 8 days. NCI H69 cells were initially treated with the test compounds on Day 0, and the cells were then replenished with fresh compound dilutions on Day 3. Pentamidine and Compound 1 were tested at 9 concentration points: 100 μM, 33.33 μM, 11.11 μM, 3.70 μM, 1.23 μM, […], 0.05 μM, and 0.02 μM (final DMSO concentration=0.5%). The raw data values from the CellTiter-Glo™ cell viability assay expressed in relative luminescence units were normalized to the vehicle for each individual plate, and any reduction in luminescence indicated a decrease in viability (%). The data was analyzed in GraphPad PRISM using a non-linear sigmoidal plot with variable slope (asymmetric four-point […]), and an IC50 value for each compound was generated based on the normalized dose-response curves and shown in Table 1.
# S. aureus ATCC 43300 = test: MIC assay against gram positive S. aureus; assay type: cell-based; settings: Staphylococcus aureus, ATCC43300
# Protocol: (§1) Then the compound stocks were serially 2-fold diluted in a v-bottom 96-well plate to make 100-fold working solutions. One day before the test, −80° C. glycerol stock of S. aureus strains were streaked on cation-adjusted Mueller-Hinton agar (CAMHA) plates. On the day of test, fresh bacterial colonies were suspended into sterile saline to an OD600 nm of ˜0.1 (equivalent to 0.5 McFarland). The bacterial suspension was firstly 20-fold followed by 50-fold diluted in cation-adjusted Mueller-Hinton broth (CAMHB) plates to 1×10^6 CFU/PO. 198 ul of the inoculum was added into the round-bottom 96-well plates prefilled with 2 ul of 100-fold compound working solutions. After incubating at 35 +/−2° C. in ambient atmosphere for 18-24 h, MIC was recorded as the lowest concentration under which no visible bacterial growth was observed.
# S. aureus ATCC 27660 = test: MIC assay against gram positive S. aureus; assay type: cell-based; settings: Staphylococcus aureus, ATCC27660
# Protocol: as §1
# [1] = tested on: P. aeruginosa (BCCM 27648); test: Checkerboard/MIC assay with rifampicin; assay type: cell-based; settings: substance alone; Pseudomonas aeruginosa BCCM27648
# From the text: (§2) The 17 test strains/isolates were: (1) Serratia marcescens (ATCC 13880); (2) Salmonella typhimurium (ATCC 13311); (3) Salmonella choleraesuis (ATCC 10708); (4) Acinetobacter baumannii (ATCC BAA-1605); (5) A. baumannii (ATCC 17978); (6) A. baumannii (FDA-CDC AR-BANK#0088); (7) Citrobacter freundii (ATCC 8090); (8) Pseudomonas aeruginosa (BCCM 27647); (9) P. aeruginosa (BCCM 27648); (10) Escherichia coli (ATCC 25922); (11) E. coli (ATCC 10536); (12) Stenotrophomonas maltophilia (ATCC 13637); (13) Enterobacter cloacae (ATCC BAA-1143); (14) E. cloacae (ATCC 13047); (15) E. aerogenes (ATCC 13048); (16) Klebsiella pneumoniae (NCTC 13438); and (17) Klebsiella pneumoniae (FDA-CDC AR-BANK#0160). These bacterial strains were obtained from the American Type Culture Collection (ATCC, Rockville, MD, USA); Belgian Coordinated Collections of Microorganisms; The Culture Collections of Public Health England, UK; and FDA-CDC anticimrobial Resistance Isolate Bank, USA, and cryopreserved as single-use frozen working stock cultures which were stored at −80° C.
# (§3) The 17 test strains were grown on nutrient agar or tryptic soy agar (TSA) medium as below. Colonies were suspended in phosphate buffered saline (PBS) pH 7.4. The absorbance of the bacterial suspension was measured with a spectrophotometer at OD620nm, and then the suspension was adjusted to 1-2×10^8 CFU/mL in PBS. The adjusted suspension was further diluted 1:500 in cation-adjusted Mueller-Hinton Broth. Each well contained approximately 5×10^5 CFU/mL. […] The testing inoculum was prepared within minutes before adding to wells of the test plate.
# (§4) Compound 3 was tested in 8 points by two-fold serial titrations from 100 to 0.78 μg/mL. […] Assay plates were incubated and MIC endpoints were read as complete inhibition of visual growth. The checkerboard combination analysis was performed following the MIC testing protocol to identify potential synergistic, indifferent or antagonistic interactions. The analysis also included each test substance alone at the same concentration ranges.
# (§5) FIC (Fraction Inhibitory Concentration) and FIC Index (FICI) values for each test condition and the average of FICI values of all pairwise combinations were calculated to determine if synergy or antagonism existed between the two substances. The FIC index was determined by calculating the sum of the ratios of MICs (minimum inhibitory concentrations) for both substances. […] Synergy is defined as the FICI (Σ)≤0.5; additivity or indifference are defined as the FICI (Σ)>0.5 to ≤4; antagonism is defined as the FICI (Σ)>4. The two fold of highest test article concentration was used for FIC value calculations in the circumstances where MIC values were greater than the highest test article concentration.
# [2] = tested on: A. baumannii (FDA-CDC AR-BANK#0088); test: Checkerboard/MIC assay with rifampicin; assay type: cell-based; settings: substance alone; Acinetobacter baumannii AR-BANK 0088
# From the text: as §2, §3, §4, §5
# [3] = tested on: Serratia marcescens (ATCC 13880); test: Checkerboard/MIC assay with rifampicin; assay type: cell-based; settings: ATCC13880, substance alone
# From the text: as §2, §3, §4, §5
# [4] = tested on: A. baumannii (ATCC 17978); test: Checkerboard/MIC assay with rifampicin; assay type: cell-based; settings: ATCC17978; substance alone; Acinetobacter baumannii ATCC 17978
# From the text: as §2, §3, §4, §5
# [5] = tested on: Enterobacter cloacae (ATCC BAA-1143); test: Checkerboard/MIC assay with rifampicin; assay type: cell-based; settings: substance alone; Enterobacter cloacae BAA-1143
# From the text: as §2, §3, §4, §5
# E. coli (ATCC 10536) = test: Checkerboard/MIC assay with rifampicin; assay type: cell-based; settings: ATCC10536; substance alone; Escherichia coli ATCC 10536
# From the text: as §2, §3, §4, §5
# [6] = tested on: E. aerogenes (ATCC 13048); test: Checkerboard/MIC assay with rifampicin; assay type: cell-based; settings: Klebsiella aerogenes, ATCC13048; substance alone; Enterobacter aerogenes ATCC-13048
# From the text: as §2, §3, §4, §5
# [7] = tested on: Salmonella choleraesuis (ATCC 10708); test: Checkerboard/MIC assay with rifampicin; assay type: cell-based; settings: Salmonella enterica
# From the text: as §2, §3, §4, §5
# [8] = tested on: Klebsiella pneumoniae (NCTC 13438); test: Checkerboard/MIC assay with rifampicin; assay type: cell-based; settings: NCTC13438, substance alone
# From the text: as §2, §3, §4, §5
# E. cloacae (ATCC 13047) = test: Checkerboard/MIC assay with rifampicin; assay type: cell-based; settings: ATCC13047; substance alone; Enterobacter cloacae ATCC-13047
# From the text: as §2, §3, §4, §5
# [9] = tested on: Escherichia coli (ATCC 25922); test: Checkerboard/MIC assay with rifampicin; assay type: cell-based; settings: ATCC25922, substance alone
# From the text: as §2, §3, §4, §5
# [10] = tested on: Pseudomonas aeruginosa (BCCM 27647); test: Checkerboard/MIC assay with rifampicin; assay type: cell-based; settings: substance alone; Pseudomonas aeruginosa BCCM27647
# From the text: as §2, §3, §4, §5
# [11] = tested on: Citrobacter freundii (ATCC 8090); test: Checkerboard/MIC assay with rifampicin; assay type: cell-based; settings: ATCC8090, substance alone
# From the text: as §2, §3, §4, §5
# [12] = tested on: Salmonella typhimurium (ATCC 13311); test: Checkerboard/MIC assay with rifampicin; assay type: cell-based; settings: Salmonella enterica; substance alone; Salmonella typhimurium ATCC13311
# From the text: as §2, §3, §4, §5
# [13] = tested on: Stenotrophomonas maltophilia (ATCC 13637); test: Checkerboard/MIC assay with rifampicin; assay type: cell-based; settings: ATCC13637, substance alone
# From the text: as §2, §3, §4, §5
# [14] = tested on: Klebsiella pneumoniae (FDA-CDC AR-BANK#0160); test: Checkerboard/MIC assay with rifampicin; assay type: cell-based; settings: substance alone; Klebsiella pneumoniae AR-BANK#0160
# From the text: as §2, §3, §4, §5
# [15] = tested on: Acinetobacter baumannii (ATCC BAA-1605); test: Checkerboard/MIC assay with rifampicin; assay type: cell-based; settings: substance alone; Acinetobacter baumannii BAA-1605
# From the text: as §2, §3, §4, §5
smiles,measurement,setting,value
"N=C(N)c1cccc(CCCCCCCc2cccc(C(=N)N)c2)c1 [Compound 1, 3,3′-(heptane-1,7-diyl)dibenzimidamide]",synergistic effect with novobiocin,A. baumannii ATCC 17978,clear synergistic effects
same,synergy with novobiocin as compared to pentamidine with novobiocin,A. baumannii ATCC 17978,superior synergy
same,MIC,A. baumannii ATCC 17978,149 µM
same,IC50,NCI H69 cells,0.31 µM
"N=C(N)c1ccc(CC[C@@H]2CCC[C@@H](CCc3ccc(C(=N)N)cc3)C2)cc1 [Compound 4, 4,4′-(2,2′-((1R,3R)-cyclohexane-1,3-diyl)bis(ethane-2,1-diyl))dibenzimidamide]",IC50,NCI H69 cells,0.75 µM
"N=C(N)c1ccc(CC[C@@H]2CCC[C@H](CCc3ccc(C4CCNC4)cc3)C2)cc1 (stereo partly drawn) [Compound 5, 4-(2-((1S,3R)-3-(4-(pyrrolidin-3-yl)phenethyl)cyclohexyl)ethyl)benzimidamide]",IC50,NCI H69 cells,1.46 µM
same,MIC,S. aureus ATCC 43300,8 µg/mL
same,MIC,S. aureus ATCC 27660,8 µg/mL
"N=C(N)c1cccc(CC[C@H]2CCC[C@@H](CCc3cccc(C(=N)N)c3)C2)c1 [Compound 6, 3,3′-(((1R,3S)-cyclohexane-1,3-diyl)bis(ethane-2,1-diyl))dibenzimidamide]",IC50,NCI H69 cells,0.33 µM
"Nc1nccc2ccc(CCCCCCCc3ccc4ccnc(N)c4c3)cc12 [Compound 7, 7,7′-(heptane-1,7-diyl)bis(isoquinolin-1-amine)]",synergistic effect with novobiocin,A. baumannii ATCC 17978,no synergistic effect
same,MIC,A. baumannii ATCC 17978,8.13 µM
same,IC50,NCI H69 cells,1.15 µM
"N=C(N)c1ccc(CCCCCCCc2ccc(C3CCNC3)cc2)cc1 (stereo not drawn) [Compound 8, 4-(7-(4-(pyrrolidine-3-yl)phenyl)heptyl)benzimidamide]",synergy with novobiocin as compared to pentamidine with novobiocin,A. baumannii ATCC 17978,increased synergy
same,MIC,A. baumannii ATCC 17978,> 34.4 µM
same,IC50,NCI H69 cells,1.92 µM
"N=C(N)c1ccc(OCCCCCOc2ccc(C(=N)N)cc2)cc1 [Pentamidine, 1,5-bis(4-amidinophenoxy)pentane]",MIC,S. aureus ATCC 43300,64 µg/mL
same,MIC,S. aureus ATCC 27660,16 µg/mL
"CO[C@H]1/C=C/O[C@@]2(C)Oc3c(C)c(O)c4c(O)c(c(/C=N/N5CCN(C)CC5)c(O)c4c3C2=O)NC(=O)/C(C)=C\C=C\[C@H](C)[C@H](O)[C@@H](C)[C@@H](O)[C@@H](C)[C@H](OC(C)=O)[C@@H]1C [Rifampicin, reference compound]",MIC,[1],> 12.5 µg/mL
same,MIC,[2],3.12 µg/mL
same,MIC,[3],> 12.5 µg/mL
same,MIC,[4],6.25 µg/mL
same,MIC,[5],> 12.5 µg/mL
same,MIC,E. coli (ATCC 10536),3.12 µg/mL
same,MIC,[6],> 12.5 µg/mL
same,MIC,[7],12.5 µg/mL
same,MIC,[8],> 12.5 µg/mL
same,MIC,E. cloacae (ATCC 13047),> 12.5 µg/mL
same,MIC,[9],6.25 µg/mL
same,MIC,[10],> 12.5 µg/mL
same,MIC,[11],> 12.5 µg/mL
same,MIC,[12],> 12.5 µg/mL
same,MIC,[13],6.25 µg/mL
same,MIC,[14],> 12.5 µg/mL
same,MIC,[15],3.12 µg/mL
"CO[C@@H]1[C@@H](OC(N)=O)[C@@H](O)[C@H](Oc2ccc3c(O)c(NC(=O)c4ccc(O)c(CC=C(C)C)c4)c(=O)oc3c2C)OC1(C)C [novobiocin, reference compound]",MIC,A. baumannii ATCC 17978,> 18.9 µM
same,MIC of novobiocin when FICI is calculated,A. baumannii ATCC 17978; value used for FICI calculation,37.8 µM
